Ends that are not written are not given here.
How the values were obtained:
YAe-62 TCR = assay: Binding of fluorescent soluble YAe-62 αβTCR to SF9 cells displaying IA^b-peptide (flow cytometry); parameters: species or system mouse; settings: for YAe-62 TCR Binding (% of p3K): IA^b-peptide displayed on baculovirus-infected SF9 cells, fluorescent soluble αβTCR; for binding of YAe-62 αβTCR to IA^b-peptide complex (in words): insect cells displaying IA^b-peptide
Method: (§1) Next fluorescent, soluble αβTCR reagents were prepared for use in flow cytometry to detect insect cells displaying the appropriate MHCII/peptide combination. Fluorescent multivalent versions of the soluble αβTCR's of B3K-06 and YAe-62 bound to insect cells displaying the IA^b-p3K, but not a control MHCII-peptide combination (data not shown).
(§2) Insect cells displaying IA^b-p3K bound the αβTCR reagents very heterogeneously, probably due to heterogeneous expression of IA^b-p3K due to variations in the multiplicity of infection and the lack of synchrony in viral infection and expression. […] In this case, there was a direct correlation between the amount of surface IA^b-p3K expressed by an individual insect cell and the amount of αβTCR bound with cells bearing a particular level of IA^b-p3K binding the αβTCRs uniformly (data not shown). Therefore, comparing the two types of staining gave a useful tool to evaluate the relation between peptide sequence and the strength of αβTCR binding (see below).
(§3) A large number of SF9 insect cells were infected at an MOI of about one with baculovirus carrying the IA^b peptide library. After 3-4 days the cells were analyzed with fluorescent B3K-06 or YAe-62 soluble αβTCR, as described above. Fluorescent cells were sorted and cultured with fresh uninfected SF9 cells to create new infected cells for analysis and an enriched viral stock. This process was repeated 3 to 4 times. In each case, when no clear fluorescent population was apparent, the brightest 1% of the infected cells was sorted. In later rounds, the majority of the cells in a clearly distinguishable fluorescent population were sorted. Infected cells binding the B3K-06 αβTCR were apparent only after two rounds of enrichment but eventually yielded a population with uniform binding (data not shown). Infected cells that bound the YAe-62 αβTCR were detectable even with the initial library of viruses and enriched rapidly to yield a population with more heterogeneous levels of binding to the receptor (data not shown).
(§4) At the time of the final enrichment, single infected cells binding each of αβTCRs were sorted into individual wells of 96 well culture plates containing fresh SF9 cells in order to prepare clonal viral stocks. These stocks were used to infect fresh SF9 cells which were reanalyzed for binding to the appropriate αβTCR as described above. […] The majority of PCR fragments yielded a single unambiguous peptide sequence. These viruses were used to infect SF9 cells that expressed mouse ICAM and B7.1. The infected cells were used as APCs for either the B3K-06 or YAe-62 hybridoma with IL-2 production being a measure of IA^b-peptide recognition. Viruses expressing IA^b-peptide combinations that neither bound to the αβTCR nor stimulated the T cell hybridomas were used as negative controls and virus producing IA^b-p3K was used as the positive control. Results with a few representative virus clones are shown in FIG. 10A and 10B, and a summary of all of the results are shown in Table 1.

YAe-62 hybridoma = assay: IL-2 production by YAe-62 T cell hybridoma in response to IA^b-peptide presenting APCs; format: cell-based, mouse; settings: for IL-2 Production (units/ml): YAe-62 hybridoma, infected SF9 cells expressing mouse ICAM and B7.1 as APCs; for difference in the amount of IL-2 production stimulated by the two peptides: SEQ ID NO:39 versus SEQ ID NO:40
Text: The mouse T cell hybridoma, referred to as YAe-62, was chosen as a representative of broadly reactive T cells present in mice carrying transgenes and gene knockouts that lead to expression of MHC Class II that are almost completely occupied by a single peptide (Ignatowicz et al., 1996, Cell 84:521-529). The T cell was produced by immunization with p3K bound to IA^b in mice that express IA^b covalently linked to Eα, a dominant IA^b binding peptide derived from the MHC Class II IEα chain. YAe-62 responds to IA^b-p3K, but not to APCs lacking MHC Class II or to the IA^b-pEα APCs from the mouse from which it was derived. YAe-62 is also reactive against many cell types bearing IA^b in the absence of p3K. It also responds to APCs from a variety of mice carrying other alleles of IA. The inventors have postulated that this T cell responds mainly to the evolutionarily conserved regions of the IA molecule with less dependence on the peptide than seen with conventional T cells (Marrack et al., 2001, J. Immunol. 167:617-621). […] From the X-ray crystal structure of IA^b (Liu et al., 2002, supra) enough was known about how peptides bind to this MHC molecule to design a strategy in which the major MHC anchor amino acids of the peptide could be held constant and only five surface exposed amino acids need be varied in the library (FIG. 8).
as §4

B3K-06 hybridoma = assay: IL-2 production by B3K-06 T cell hybridoma in response to IA^b-peptide presenting APCs; format: cell-based, mouse; settings: for IL-2 Production (units/ml): B3K-06 hybridoma, infected SF9 cells expressing mouse ICAM and B7.1 as APCs
Text: The hybridoma, B3K-06 was produced from wild-type C57BL/6 mice immunized conventionally with the peptide (Rees et al., 1999, supra). […] Also, as is commonly seen with conventional T cells, the interaction of the αβ TcR of B3K-06 with IA^b-p3K is very sensitive to changes in any of the peptide amino acids exposed on the surface of the IA^b-p3K complex. Mutation of positions Q2, K3, K5, N7 or K8 to alanine virtually eliminates recognition of p3K by B3K-06 (Liu et al., 2002, supra and additional data not shown).
as §4

B3K-06 TCR = assay: Binding of fluorescent soluble B3K-06 αβTCR to SF9 cells displaying IA^b-peptide (flow cytometry); parameters: species or system mouse; settings: for B3K-06 TCR Binding (% of p3K): IA^b-peptide displayed on baculovirus-infected SF9 cells, fluorescent soluble αβTCR
Method: as §1, §2, §3, §4

Substance	YAe-62 TCR Binding (% of p3K) (YAe-62 TCR)	IL-2 Production (units/ml) (YAe-62 hybridoma)	also measured
F E A Y T A R A R T A V [SEQ ID NO:26] (FEAYTARARTAV; synthetic peptide motif)	54.9 % of p3K	7 units/ml	–
F E A A L A R A V P A V (FEAALARAVPAV; synthetic peptide motif) [SEQ ID NO:33]	23.4 % of p3K	<3 units/ml	–
F E A E R A R A A S A V (FEAERARAASAV; synthetic peptide motif) [SEQ ID NO:36]	2.3 % of p3K	<3 units/ml	–
F E A P Y A Q A P H A V (FEAPYAQAPHAV; synthetic peptide motif) [SEQ ID NO:38]	1.3 % of p3K	<3 units/ml	–
F E A S K A S A A V A V (FEASKASAAVAV; synthetic peptide motif) [SEQ ID NO:34]	13.0 % of p3K	<3 units/ml	–
F E A Y T A R A R T A V [SEQ ID NO:25] (FEAYTARARTAV)	58.3 % of p3K	5 units/ml	–
FEAQTAKARGAVD (synthetic peptide motif)	–	–	binding of YAe-62 αβTCR to IA^b-peptide complex (in words) (YAe-62 TCR): nearly equally well; difference in the amount of IL-2 production stimulated by the two peptides (YAe-62 hybridoma): 100 fold
F E A H T A L A P R A V (FEAHTALAPRAV) [SEQ ID NO:23]	80.4 % of p3K	6 units/ml	–
F E A F P A K A L R A V (FEAFPAKALRAV; synthetic peptide motif) [SEQ ID NO:30]	38.5 % of p3K	47 units/ml	–
F E A R E A K A L A A V (FEAREAKALAAV; synthetic peptide motif) [SEQ ID NO:32]	27.0 % of p3K	<3 units/ml	–
F E A Q G A L A N I A V (FEAQGALANIAV; synthetic peptide motif) [pEα, negative control, reference compound]	0.3 % of p3K	<3 units/ml	IL-2 Production (units/ml) (B3K-06 hybridoma): <3 units/ml; B3K-06 TCR Binding (% of p3K) (B3K-06 TCR): 0.4 % of p3K; response of YAe-62 to IA^b-peptide APCs (YAe-62 hybridoma; APCs bearing IA^b-peptide): not
F E A R L A S A G K A V (FEARLASAGKAV; synthetic peptide motif) [SEQ ID NO:35]	2.6 % of p3K	<3 units/ml	–
F E A Q V A H A L P A V (FEAQVAHALPAV; synthetic peptide motif) [SEQ ID NO:29]	48.6 % of p3K	32 units/ml	–
F E A E K A K A L T A V (FEAEKAKALTAV; synthetic peptide motif) [SEQ ID NO:28]	49.6 % of p3K	9 units/ml	–
F E A R C A K A S T A V (FEARCAKASTAV; synthetic peptide motif) [SEQ ID NO:20]	102.5 % of p3K	467 units/ml	–
F E A L P A R A A A A V (FEALPARAAAAV) [SEQ ID NO:22]	70.4 % of p3K	681 units/ml	binding of YAe-62 αβTCR to IA^b-peptide complex (in words) (YAe-62 TCR): nearly equally well; difference in the amount of IL-2 production stimulated by the two peptides (YAe-62 hybridoma): 100 fold
F E A S L A R A R S A V (FEASLARARSAV) [SEQ ID NO:24]	76.2 % of p3K	5 units/ml	–
F E A Q R A R A A R A V (FEAQRARAARAV; also: tethered to IA^b) [SEQ ID NO:16]	–	–	IL-2 Production (units/ml) (B3K-06 hybridoma): 25 units/ml; stimulation of B3K-06 to produce IL-2 (in words) (B3K-06 hybridoma; bound to IA^b on B7/ICAM expressing SF9 APCs): able to stimulate B3K-06 to produce IL-2, but not nearly as well as did p3K; B3K-06 TCR Binding (% of p3K) (B3K-06 TCR): 66.8 % of p3K; binding of B3K-06 αβTCR to IA^b-peptide complex (in words) (B3K-06 TCR; insect cells displaying IA^b-peptide): only slightly less well than did the IA^b-p3K complex
F E A R T A H A R N A V (FEARTAHARNAV; synthetic peptide motif) [SEQ ID NO:37]	1.4 % of p3K	<3 units/ml	–
F E A F M A R A K A A V (FEAFMARAKAAV; synthetic peptide motif) [SEQ ID NO:21]	107.5 % of p3K	1256 units/ml	–
F E A L Y A K A L T A V (FEALYAKALTAV; synthetic peptide motif) [SEQ ID NO:19]	98.7 % of p3K	1717 units/ml	–
F E A T T A R A L T A V (FEATTARALTAV; synthetic peptide motif) [SEQ ID NO:27]	52.0 % of p3K	6 units/ml	–
F E A L S A K A N T A V (FEALSAKANTAV; synthetic peptide motif) [SEQ ID NO:31]	33.3 % of p3K	<3 units/ml	–

Source: patent US20040110253A1, “Method for identifying MHC-presented peptide epitopes for T cells” (priority 2002, published 2004)
